Experimental data taken from ChEMBL document CHEMBL1156814, “Highly suppressing wild-type HIV-1 and Y181C mutant HIV-1 strains by 10-chloromethyl-11-demethyl-12-oxo-calanolide A with druggable profile” (J Med Chem, 2010).

How the values were obtained:
[1] = system: Human immunodeficiency virus 1; assay: Antiviral activity against 100 TCID50 HIV1 infected in human TZM-b1 cells assessed as inhibition of viral replication by pseudovirus based assay; format: functional, organism-based
[2] = system: Mus musculus; assay: Toxicity in ICR mouse assessed as body weight at 4640 mg/kg, ig after 4 days administered as single dose (reference value: 21.1+/-0.9); format: organism-based; parameters: dose 4640 mg/kg, route intragastric; conditions: in vivo, po, 96 h
[3] = system: Human immunodeficiency virus 1; assay: Antiviral activity against HIV1 with reverse transcriptase Y181L mutation; format: functional, organism-based
[4] = Tmax in Wistar rat at 50 mg/kg, po; format: ADME, organism-based; parameters: dose 50 mg/kg, route oral; conditions: in vivo
[5] = system: Mus musculus; assay: Toxicity in ICR mouse assessed as body weight at 4640 mg/kg, ig after 7 days administered as single dose (reference value: 21.1+/-0.9); format: organism-based; parameters: dose 4640 mg/kg, route intragastric; conditions: in vivo, po, 168 h
[6] = system: Mus musculus; assay: Toxicity in ICR mouse assessed as mortality at 4640 mg/kg, ig after 4 days administered as single dose; format: organism-based; parameters: dose 4640 mg/kg, route intragastric; conditions: in vivo, po, 96 h
[7] = system: Human immunodeficiency virus 1; assay: Antiviral activity against HIV1 with reverse transcriptase G190A mutation; format: functional, organism-based
[8] = system: Mus musculus; assay: Toxicity in ICR mouse assessed as body weight at 4640 mg/kg, ig after 1 day administered as single dose (reference value: 21.1+/-0.9); format: organism-based; parameters: dose 4640 mg/kg, route intragastric; conditions: in vivo, po, 24 h
[9] = system: Mus musculus; assay: Toxicity in ICR mouse assessed as mortality at 4640 mg/kg, ig after 11 days administered as single dose; format: organism-based; parameters: dose 4640 mg/kg, route intragastric; conditions: in vivo, po, 264 h
[10] = system: Mus musculus; assay: Toxicity in ICR mouse assessed as mortality at 1000 mg/kg, ig after 7 days administered as single dose; format: organism-based; parameters: dose 1000 mg/kg, route intragastric; conditions: in vivo, po, 168 h
[11] = system: Human immunodeficiency virus 1; assay: Antiviral activity against HIV1 with reverse transcriptase Y181C mutation; format: functional, organism-based
[12] = Oral bioavailability in Wistar rat at 50 mg/kg; format: ADME, organism-based; conditions: in vivo
[13] = system: Mus musculus; assay: Toxicity in ICR mouse assessed as mortality at 1000 mg/kg, ig after 11 days administered as single dose; format: organism-based; parameters: dose 1000 mg/kg, route intragastric; conditions: in vivo, po, 264 h
[14] = Half life in Wistar rat at 5 mg/kg, iv; format: ADME, organism-based; parameters: dose 5 mg/kg, route intravenous; conditions: in vivo
[15] = Mean residence time in Wistar rat at 50 mg/kg, po; format: ADME, organism-based; parameters: dose 50 mg/kg, route oral; conditions: in vivo
[16] = Half life in Wistar rat at 50 mg/kg, po; format: ADME, organism-based; parameters: dose 50 mg/kg, route oral; conditions: in vivo
[17] = system: Mus musculus; assay: Toxicity in ICR mouse assessed as mortality at 1000 mg/kg, ig after 4 days administered as single dose; format: organism-based; parameters: dose 1000 mg/kg, route intragastric; conditions: in vivo, po, 96 h
[18] = system: Mus musculus; assay: Toxicity in ICR mouse assessed as mortality at 1000 mg/kg, ig after 1 day administered as single dose; format: organism-based; parameters: dose 1000 mg/kg, route intragastric; conditions: in vivo, po, 24 h
[19] = system: Mus musculus; assay: Toxicity in ICR mouse assessed as body weight at 1000 mg/kg, ig after 1 day administered as single dose (reference value: 21.2+/-0.8); format: organism-based; parameters: dose 1000 mg/kg, route intragastric; conditions: in vivo, po, 24 h
[20] = system: Mus musculus; assay: Toxicity in ICR mouse assessed as body weight at 2150 mg/kg, ig after 7 days administered as single dose (reference value: 20.9+/-0.9); format: organism-based; parameters: dose 2150 mg/kg, route intragastric; conditions: in vivo, po, 168 h
[21] = Toxicity in African green monkey Vero cells; format: cell-based; conditions: chlorocebus sabaeus
[22] = Selectivity index, ratio of IC50 for African green monkey Vero cells to EC50 for HIV1; format: toxicity, cell-based; conditions: read-out: Selectivity Index
[23] = system: Rattus norvegicus; assay: AUC in Wistar rat at 5 mg/kg, iv; format: ADME, organism-based, Plasma; parameters: dose 5 mg/kg, route intravenous; conditions: in vivo
[24] = system: Human immunodeficiency virus 1; assay: Antiviral activity against HIV1 with reverse transcriptase […] mutation; format: functional, organism-based
[25] = system: Rattus norvegicus; assay: AUC in Wistar rat at 50 mg/kg, po; format: ADME, organism-based, Plasma; parameters: dose 50 mg/kg, route oral; conditions: in vivo
[26] = system: Mus musculus; assay: Toxicity in ICR mouse assessed as body weight at 1000 mg/kg, ig after 4 days administered as single dose (reference value: 21.2+/-0.8); format: organism-based; parameters: dose 1000 mg/kg, route intragastric; conditions: in vivo, po, 96 h
[27] = system: Human immunodeficiency virus 1; assay: Antiviral activity against HIV1 PNL4-3; format: functional, organism-based; conditions: Human immunodeficiency virus 1, PNL4-3
[28] = system: Mus musculus; assay: Toxicity in ICR mouse assessed as mortality at 2150 mg/kg, ig after 1 day administered as single dose; format: organism-based; parameters: dose 2150 mg/kg, route intragastric; conditions: in vivo, po, 24 h
[29] = Tmax in Wistar rat at 5 mg/kg, iv; format: ADME, organism-based; parameters: dose 5 mg/kg, route intravenous; conditions: in vivo
[30] = system: Mus musculus; assay: Toxicity in ICR mouse assessed as mortality at 2150 mg/kg, ig after 11 days administered as single dose; format: organism-based; parameters: dose 2150 mg/kg, route intragastric; conditions: in vivo, po, 264 h
[31] = system: Mus musculus; assay: Toxicity in ICR mouse assessed as mortality at 2150 mg/kg, ig after 4 days administered as single dose; format: organism-based; parameters: dose 2150 mg/kg, route intragastric; conditions: in vivo, po, 96 h
[32] = system: Mus musculus; assay: Toxicity in ICR mouse assessed as mortality at 4640 mg/kg, ig after 1 day administered as single dose; format: organism-based; parameters: dose 4640 mg/kg, route intragastric; conditions: in vivo, po, 24 h
[33] = Cmax in Wistar rat at 5 mg/kg, iv; format: ADME, organism-based; parameters: dose 5 mg/kg, route intravenous; conditions: in vivo
[34] = system: Mus musculus; assay: Toxicity in ICR mouse assessed as body weight at 2150 mg/kg, ig after 4 days administered as single dose (reference value: 20.9+/-0.9); format: organism-based; parameters: dose 2150 mg/kg, route intragastric; conditions: in vivo, po, 96 h
[35] = system: Mus musculus; assay: Toxicity in ICR mouse assessed as mortality at 4640 mg/kg, ig after 7 days administered as single dose; format: organism-based; parameters: dose 4640 mg/kg, route intragastric; conditions: in vivo, po, 168 h
[36] = Cmax in Wistar rat at 50 mg/kg, po; format: ADME, organism-based; parameters: dose 50 mg/kg, route oral; conditions: in vivo
[37] = system: Human immunodeficiency virus 1; assay: Antiviral activity against HIV1 with reverse transcriptase K103N mutation; format: functional, organism-based
[38] = system: Mus musculus; assay: Toxicity in ICR mouse assessed as mortality at 2150 mg/kg, ig after 7 days administered as single dose; format: organism-based; parameters: dose 2150 mg/kg, route intragastric; conditions: in vivo, po, 168 h
[39] = system: Mus musculus; assay: Toxicity in ICR mouse assessed as body weight at 1000 mg/kg, ig after 7 days administered as single dose (reference value: 21.2+/-0.8); format: organism-based; parameters: dose 1000 mg/kg, route intragastric; conditions: in vivo, po, 168 h
[40] = system: Mus musculus; assay: Toxicity in ICR mouse assessed as mortality at 1000 mg/kg, ig after 14 days administered as single dose; format: organism-based; parameters: dose 1000 mg/kg, route intragastric; conditions: in vivo, po, 336 h
[41] = Mean residence time in Wistar rat at 5 mg/kg, iv; format: ADME, organism-based; parameters: dose 5 mg/kg, route intravenous; conditions: in vivo
[42] = system: Mus musculus; assay: Toxicity in ICR mouse assessed as mortality at 2150 mg/kg, ig after 14 days administered as single dose; format: organism-based; parameters: dose 2150 mg/kg, route intragastric; conditions: in vivo, po, 336 h
[43] = system: Mus musculus; assay: Toxicity in ICR mouse assessed as mortality at 4640 mg/kg, ig after 14 days administered as single dose; format: organism-based; parameters: dose 4640 mg/kg, route intragastric; conditions: in vivo, po, 336 h
[44] = system: Mus musculus; assay: Toxicity in ICR mouse assessed as body weight at 2150 mg/kg, ig after 1 day administered as single dose (reference value: 20.9+/-0.9); format: organism-based; parameters: dose 2150 mg/kg, route intragastric; conditions: in vivo, po, 24 h
[45] = Human immunodeficiency virus 1, TZM-b1, read-out: EC50

For `CCCc1cc(=O)oc2c3c(c4c(c12)OC(C)(C)C=C4)OC(CNS(=O)(=O)c1ccc(OC)cc1)CC3=O` (stereo not drawn), the EC50 ([1]; tzm-b1) was “Not Active”.
For `CCCc1cc(=O)oc2c3c(c4c(c12)OC(C)(C)C=C4)OC(CN1CCCCC1)CC3=O` (stereo not drawn), the EC50 ([1]; tzm-b1) was “Not Active”.
Work on `CCCc1cc(=O)oc2c3c(c4c(c12)OC(C)(C)C=C4)OC(CCl)CC3=O` (stereo not drawn) yielded an Activity [2] of 27.5 g, an EC50 [3] of 6130 nM and a Tmax [4] of 8 h. The Activity [5] was 29.9 g, the Activity [6] was “Non-toxic” and the EC50 [7] was 43.9 nM. The Activity [8] was 23.2 g, the Activity [9] was “Non-toxic” and the Activity [10] was “Non-toxic”. For the same compound, the EC50 [11] was 0.46 nM, the bioavailability [12] was 32.7% and the Activity [13] was “Non-toxic”. It also gave a half-life [14] of 1.9 h, an MRT [15] of 9.2 h and a half-life [16] of 3.8 h. The Activity [17] was “Non-toxic”, the Activity [18] was “Non-toxic” and the Activity [19] was 23 g. The Activity [20] was 31.4 g, the CC50 [21] was 10500 nM and the selectivity ratio [22] was 1420. The AUC [23] was 1.5 ug/hr.ml, the EC50 [24] was 104 nM and the AUC [25] was 4.7 ug/hr.ml. The Activity [26] was 28.5 g, the EC50 [27] was 7.4 nM and the Activity [28] was “Non-toxic”. The Tmax [29] was 1.8 min, the EC50 [1, 45] was 7.4 nM and the Activity [30] was “Non-toxic”. For the same compound, the Activity [31] was “Non-toxic”, the Activity [32] was “Non-toxic” and the Cmax [33] was 930 ng/mL. The Activity [34] was 28 g, the Activity [35] was “Non-toxic” and the Cmax [36] was 340 ng/mL. The EC50 [37] was 316 nM, the Activity [38] was “Non-toxic” and the Activity [39] was 31.1 g. The Activity [40] was “Non-toxic”, the MRT [41] was 1.7 h and the Activity [42] was “Non-toxic”. For the same compound, the Activity [43] was “Non-toxic” and the Activity [44] was 23 g.
For `CCCc1cc(=O)oc2c3c(c4c(c12)OC(C)(C)C=C4)OC(CN)CC3=O` (stereo not drawn) [1'-AMINEMETHYL-11-DEMETHYL-12-OXO-CALANOLIDE A], the EC50 ([1]; tzm-b1) was “Not Active”.
`Cc1ccnc2c1NC(=O)c1cccnc1N2C1CC1` [NEVIRAPINE] gave an EC50 [3] of 10500 nM, an EC50 [7] of 385 nM and an EC50 [11] of 42.6 nM. It also gave a CC50 [21] of 27100 nM, a selectivity ratio [22] of 3300 and an EC50 [24] of 6150 nM. It also gave an EC50 [27] of 97.5 nM, an EC50 [1, 45] of 8.2 nM and an EC50 [37] of 13400 nM.
In the case of `CCCc1cc(=O)oc2c3c(c4c(c12)OC(C)(C)C=C4)OC(CN(C)C)CC3=O` (stereo not drawn), the EC50 ([1]; tzm-b1) is reported as “Not Active”.
Work on `CCCc1cc(=O)oc2c3c(c4c(c12)OC(C)(C)C=C4)OC(C(F)(F)F)CC3=O` (stereo not drawn) yielded an EC50 [1, 45] of 14900 nM.
`CCCc1cc(=O)oc2c3c(c4c(c12)OC(C)(C)C=C4)OC(CSC)CC3=O` (stereo not drawn) showed an EC50 [1, 45] of 456 nM.
`CCCc1cc(=O)oc2c3c(c4c(c12)OC(C)(C)C=C4)O[C@H](C)[C@@H](C)[C@@H]3O` [CALANOLIDE A] gave an EC50 [3] of 7170 nM, an EC50 [7] of 159 nM and an EC50 [11] of 10600 nM. The selectivity ratio [22] was 16, the EC50 [24] was 2.2 nM and the EC50 [27] was 11.4 nM. The EC50 [1, 45] was 100 nM and the EC50 [37] was 464 nM.
In the case of `CCCc1cc(=O)oc2c3c(c4c(c12)OC(C)(C)C=C4)OC(CNS(=O)(=O)c1ccc(NC(C)=O)cc1)CC3=O` (stereo not drawn), the EC50 ([1]; tzm-b1) is reported as “Not Active”.
